We go through 4 molecules from patent US4746736A, “Carbapenem antibiotics” (priority 1986, dated 1988).

Type in all cases: cell-based
In experiment [1] the test system is P. morganii A15153. The experiment is described as follows: In vitro MIC by tube dilution, P. morganii (M. morganii) A15153. The following applies: Morganella morganii, read-out: MIC.
In experiment [2] the test system is P. rettgeri A22424. The experiment is described as follows: In vitro MIC by tube dilution, P. rettgeri A22424. The following applies: Providencia rettgeri, read-out: MIC.
The subject of experiment [3] is K. pneumoniae A-9664. Kind of experiment: In vitro MIC by tube dilution, K. pneumoniae A-9664. The settings on record: Klebsiella pneumoniae, A9664, read-out: MIC.
Experiment [4] has as its system S. aureus A-9537. Kind of experiment: In vitro MIC by tube dilution, S. aureus A-9537. The following applies: Staphylococcus aureus, read-out: MIC.
For experiment [5], the system named is P. aeruginosa A-9843A. The experiment is described as follows: In vitro MIC by tube dilution, P. aeruginosa A-9843A. The settings on record: Pseudomonas aeruginosa, A9843A, read-out: MIC.
Experiment [6] deals with E. cloacae A-9656. Kind of experiment: In vitro MIC by tube dilution, E. cloacae A-9656. The following applies: Enterobacter cloacae, A9656, E. cloacae A-9656; read-out: MIC.
Experiment [7] deals with P. aeruginosa A21213. Kind of experiment: In vitro MIC by tube dilution, P. aeruginosa A21213. The following applies: Pseudomonas aeruginosa, read-out: MIC.
Experiment [8] deals with K. pneumoniae A20468. Kind of experiment: In vitro MIC by tube dilution, K. pneumoniae A20468. The following applies: Klebsiella pneumoniae, read-out: MIC.
For experiment [9], the system named is S. marcescens A20019. Kind of experiment: In vitro MIC by tube dilution, S. marcescens A20019. The following applies: Serratia marcescens, read-out: MIC.
Experiment [10] has as its system E. cloacae A-9659. The experiment is described as follows: In vitro MIC by tube dilution, E. cloacae A-9659. The following applies: Enterobacter cloacae, read-out: MIC.
Experiment [11] deals with P. mirabilis A-9900. The experiment is described as follows: In vitro MIC by tube dilution, P. mirabilis A-9900. The settings on record: Proteus mirabilis, A9900, P. mirabilis A-9900; read-out: MIC.
Experiment [12] has as its system E. coli A15119. The experiment is described as follows: In vitro MIC by tube dilution, E. coli A15119. The settings on record: Escherichia coli, read-out: MIC.
The subject of experiment [13] is E. coli A20341-1. Kind of experiment: In vitro MIC by tube dilution, E. coli A20341-1. The settings on record: Escherichia coli, A203411, read-out: MIC.
For experiment [14], the system named is S. faecalis A20688. Kind of experiment: In vitro MIC by tube dilution, S. faecalis A20688. The settings on record: Enterococcus faecalis, A20688, S. faecalis A20688; read-out: MIC.
Experiment [15] relates to S. aureus A-9606 (Pen-res.). The experiment is described as follows: In vitro MIC by tube dilution, S. aureus A-9606 (Pen-res.). The settings on record: Staphylococcus aureus, read-out: MIC.
The subject of experiment [16] is S. pneumoniae A-9585. Kind of experiment: In vitro MIC by tube dilution, S. pneumoniae A-9585. The settings on record: Streptococcus pneumoniae, A9585, S. pneumoniae A-9585; read-out: MIC.
The subject of experiment [17] is S. pyogenes A9604. Kind of experiment: In vitro MIC by tube dilution, S. pyogenes A9604. The settings on record: Streptococcus pyogenes, A9604, S. pyogenes A-9604; read-out: MIC.
Experiment [18] has as its system S. aureus A15097 (Meth-res.). The experiment is described as follows: In vitro MIC by tube dilution, S. aureus A15097 (Meth-res.). The following applies: Staphylococcus aureus.
Where [19] appears, read: A9537, S. aureus A-9537, no serum.
[20] abbreviates: A9537, S. aureus A-9537 +50% serum.

Values after ≈ are worked out from the molar mass of the structure shown. Read-outs that look alike come from different tables or passages of the source.

For the molecule `C[C@@H](O)[C@H]1C(=O)N2C(C(=O)[O-])=C(SCc3n(C)cc[n+]3C)C[C@H]12` [Example 9, 3-(N,N'-Dimethylimidazole-2-yl-methanethio)-6α-[1-(R)-hydroxyethyl]-7-oxo-1-azabicyclo(3.2.0)hept-2-ene-2-carboxylate], the MIC – broadly, the least concentration at which growth counts as inhibited – stood at 0.03 µg/mL (≈ 0.0889 µM) in experiment [1] (M. morganii A15153); 0.06 µg/mL (≈ 0.178 µM) in [2] (A22424, P. rettgeri A22424); 0.016 µg/mL (≈ 0.0474 µM) in experiment [3]; 0.004 µg/mL (≈ 0.0119 µM) in [4] (setting [19]); 2 µg/mL (≈ 5.93 µM) in experiment [5] (P. aeruginosa A-9843a); 0.03 µg/mL (≈ 0.0889 µM) in experiment [6]. Further, the MIC in experiment [7] (A21213, P. aeruginosa A21213) worked out at 0.13 µg/mL (≈ 0.385 µM); in experiment [8] (K. pneumoniae A20468) it was 0.03 µg/mL (≈ 0.0889 µM); in experiment [9] it was 0.016 µg/mL (≈ 0.0474 µM); in [10] (A9659, E. cloacae A-9659) it was 0.03 µg/mL (≈ 0.0889 µM); in experiment [11] it was 0.016 µg/mL (≈ 0.0474 µM); in experiment [12] (E. coli A15119) it was 0.008 µg/mL (≈ 0.0237 µM). Also, the MIC in experiment [13] was 0.004 µg/mL (≈ 0.0119 µM); in experiment [14] it was 0.13 µg/mL (≈ 0.385 µM).
Take `C[C@@H](O)[C@H]1C(=O)N2C(C(=O)[O-])=C(SCc3cn(C)n[n+]3C)C[C@H]12` [Example 15 "A", 3-[4-(N,N-dimethyl-1,2,3-triazolium)methylthio]-6α-[1-(R)-hydroxyethyl]-7-oxo-1-azabicyclo(3.2.0)hept-2-ene-2-carboxylate]: the MIC in experiment [1] (M. morganii A15153) was determined as 0.03 µg/mL (≈ 0.0887 µM); in [2] (P. rettgeri A22424), 0.03 µg/mL (≈ 0.0887 µM); in experiment [3], 0.008 µg/mL (≈ 0.0236 µM); in experiment [4] (setting [20]), 0.03 µg/mL (≈ 0.0887 µM); in experiment [4] (setting [19]), 0.03 µg/mL (≈ 0.0887 µM); in [5] (P. aeruginosa A-9843a), 0.5 µg/mL (≈ 1.48 µM). The MIC is 0.016 µg/mL (≈ 0.0473 µM) in [6]; 0.004 µg/mL (≈ 0.0118 µM) in experiment [15] (S. aureus A-9606 (Pen-res)); 0.03 µg/mL (≈ 0.0887 µM) in experiment [7] (P. aeruginosa A21213); 0.008 µg/mL (≈ 0.0236 µM) in [8] (K. pneumoniae A20468); 0.008 µg/mL (≈ 0.0236 µM) in experiment [9]; 0.016 µg/mL (≈ 0.0473 µM) in experiment [10] (A9659, E. cloacae A-9659). For the same molecule, the MIC in experiment [11] was found to be 0.008 µg/mL (≈ 0.0236 µM); in [12] (E. coli A15119), 0.004 µg/mL (≈ 0.0118 µM); in [13] it was 0.004 µg/mL (≈ 0.0118 µM); in experiment [14], 0.13 µg/mL (≈ 0.384 µM).
As to `C[C@@H](O)[C@H]1C(=O)N2C(C(=O)[O-])=C(SCCc3cccc[n+]3C)C[C@H]12` [Example 5, 3-(N-Methylpyridine-2-yl-ethanethio]-6α-[1-(R)-hydroxyethyl]-7-oxo-1-azabicyclo(3.2.0)hept-2-ene-2-carboxylate], the minimal inhibitory concentration (MIC) in experiment [1] (A15153, M. morganii A15153) was 0.06 µg/mL (≈ 0.172 µM); in experiment [2] (A22424, P. rettgeri A22424) it was 0.13 µg/mL (≈ 0.373 µM); in experiment [3], 0.03 µg/mL (≈ 0.0861 µM); in experiment [4] (setting [20]), 0.016 µg/mL (≈ 0.0459 µM); in experiment [4] (setting [19]), 0.004 µg/mL (≈ 0.0115 µM); in [5] (P. aeruginosa A-9843a), 4 µg/mL (≈ 11.5 µM). The MIC in experiment [6] turned out to be 0.13 µg/mL (≈ 0.373 µM); in [16], 0.004 µg/mL (≈ 0.0115 µM); in experiment [15] (S. aureus A-9606 (Pen-res)) it was 0.008 µg/mL (≈ 0.023 µM); in experiment [17] it was 0.004 µg/mL (≈ 0.0115 µM); in [8] (A20468, K. pneumoniae A20468), 0.06 µg/mL (≈ 0.172 µM); in experiment [9], 0.06 µg/mL (≈ 0.172 µM). Also, the MIC is 8 µg/mL (≈ 23 µM) in [18] (S. aureus A15097 (Meth-res)); 0.06 µg/mL (≈ 0.172 µM) in [10] (A9659, E. cloacae A-9659); 0.03 µg/mL (≈ 0.0861 µM) in experiment [11]; 0.016 µg/mL (≈ 0.0459 µM) in experiment [12] (A15119, E. coli A15119); 0.016 µg/mL (≈ 0.0459 µM) in [13].
As for `C[C@@H](O)[C@H]1C(=O)N2C(C(=O)[O-])=C(SCCc3cc[n+](C)cc3)C[C@H]12` [Example 2], the MIC in experiment [1] (A15153, P. morganii A15153) was found to be 0.06 µg/mL (≈ 0.172 µM); in experiment [2] (A22424, P. rettgeri A22424) it was 0.13 µg/mL (≈ 0.373 µM); in experiment [3], 0.06 µg/mL (≈ 0.172 µM); in experiment [4] (A9537, S. aureus A-9537 + 50% serum, overnight 37° C.) it was 0.016 µg/mL; in experiment [4] (A9537, S. aureus A-9537, no serum, overnight 37° C.) it was 0.004 µg/mL (≈ 0.0115 µM); in [5] (P. aeruginosa A-9843A) it was 8 µg/mL (≈ 23 µM). In addition, the MIC in experiment [15] (S. aureus A-9606 (Pen-res.), overnight 37° C.) was found to be 0.008 µg/mL (≈ 0.023 µM); in experiment [8] (A20468, K. pneumoniae A20468), 0.13 µg/mL (≈ 0.373 µM); in experiment [9], 0.03 µg/mL (≈ 0.0861 µM); in [18] (S. aureus A15097 (Meth-res.), overnight 37° C.) it was 8 µg/mL (≈ 23 µM); in [10] (A9659, E. cloacae A9659), 0.13 µg/mL (≈ 0.373 µM); in experiment [11], 0.03 µg/mL (≈ 0.0861 µM).
